The source of these data is patent US10526323B2, “Indazole and azaindazole substituted compounds as mGluR4 allosteric potentiators, compositions, and methods of treating neurological dysfunction” (Vanderbilt University, priority 2015, dated 2020).

For this test, the target named is mGluR4 (UniProt Q14833). In words: mGluR4 potentiation assay: increase in response to an EC20 concentration of agonist (species not given). To be noted: EC50 for potentiation of mGluR4; table does not state human or rat. It counts as cell-based. The essentials:
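Human mGluR4 was expressed in CHO cells read with a Ca2+-sensitive dye; rat mGluR4 was co-expressed with GIRK in […] read by thallium flux. Potentiation is the rise over agonist-alone response, with EC50 and maximal potentiation from non-linear fits.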
For the compound `Cc1cc(Cn2nc(C)c3cc(Nc4n[nH]c5cccnc45)ccc32)on1` [Example 130, N-(3-methyl-1-((3-methylisoxazol-5-yl)methyl)-1H-indazol-5-yl)-1H-pyrazolo[4,3-b]pyridin-3-amine], the EC50 (as a rule, the concentration needed to bring the measured effect to its halfway point) stood at 0.063 µM.
As for `CCC(F)(F)Cn1nc(C)c2cc(Nc3n[nH]c4cccnc34)ccc21` [Example 136, N-(1-(2,2-difluorobutyl)-3-methyl-1H-indazol-5-yl)-1H-pyrazolo[4,3-b]pyridin-3-amine], the figure is 0.253 µM; as for `CCC(C)n1nc(C)c2cc(Nc3n[nH]c4cccnc34)ccc21` (centres unmarked) [Example 102, N-(1-(sec-butyl)-3-methyl-1H-indazol-5-yl)-1H-pyrazolo[4,3-b]pyridin-3-amine], 0.367 µM.
`Cn1nc(OCC2COC2)c2ccc(Nc3n[nH]c4cccnc34)cc21` [Example 195, N-[1-methyl-3-(oxetan-3-ylmethoxy)indazol-6-yl]-1H-pyrazolo[4,3-b]pyridin-3-amine]: the EC50 was 0.0966 µM.
As for `Cn1nc(OC2CCOCC2)c2ccc(Nc3n[nH]c4cccnc34)cc21` [Example 225, N-(1-methyl-3-((tetrahydro-2H-pyran-4-yl)oxy)-1H-indazol-6-yl)-1H-pyrazolo[4,3-b]pyridin-3-amine], the figure is 0.046 µM; as for `Cn1nc(C2CC2)c2ccc(Nc3n[nH]c4cccnc34)cc21` [Example 1, N-(3-cyclopropyl-1-methyl-1H-indazol-6-yl)-1H-pyrazolo[4,3-b]pyridin-3-amine], 0.043 µM.
As for `CCCCCn1nc(C)c2cc(Nc3n[nH]c4cccnc34)ccc21` [Example 91], the figure is 0.019 µM.
As for `Cc1cc(Cn2ncc3ncc(Nc4n[nH]c5cccnc45)cc32)no1` [Example 146, N-(1-((5-methylisoxazol-3-yl)methyl)-1H-pyrazolo[4,3-b]pyridin-6-yl)-1H-pyrazolo[4,3-b]pyridin-3-amine], the figure is greater than 10 µM; as for `Cc1nn(C(C)(C)C)c2ccc(Nc3n[nH]c4cccnc34)cc12` [Example 97, N-(1-(tert-butyl)-3-methyl-1H-indazol-5-yl)-1H-pyrazolo[4,3-b]pyridin-3-amine], 0.575 µM.
Consider `Cc1nn(C2CCOCC2)c2ccc(Nc3n[nH]c4cccnc34)cc12` [Example 117, N-(3-methyl-1-(tetrahydro-2H-pyran-4-yl)-1H-indazol-5-yl)-1H-pyrazolo[4,3-b]pyridin-3-amine], for which the EC50 worked out at 1.46 µM.
Under `Cc1cc(Cn2ncc3c(Nc4n[nH]c5cccnc45)cccc32)no1` [Example 32, N-(1-((5-methylisoxazol-3-yl)methyl)-1H-indazol-4-yl)-1H-pyrazolo[4,3-b]pyridin-3-amine] stands 0.571 µM; under `Cc1nn(C(C)C)c2ncc(Nc3n[nH]c4ncccc34)cc12` [Example 267, N-(1-isopropyl-3-methyl-1H-pyrazolo[3,4-b]pyridin-5-yl)-1H-pyrazolo[3,4-b]pyridin-3-amine], greater than 10 µM; under `Cc1cc(Cn2nc(C)c3cc(Nc4n[nH]c5ncccc45)ccc32)no1` [Example 77, N-(3-methyl-1-((5-methylisoxazol-3-yl)methyl)-1H-indazol-5-yl)-1H-pyrazolo[3,4-b]pyridin-3-amine], 0.157 µM.
As to `[2H]C([2H])([2H])n1nc(C2CC2)c2ccc(Nc3n[nH]c4nccnc34)cc21` [Example 22, N-(3-cyclopropyl-1-(methyl-d3)-1H-indazol-6-yl)-1H-pyrazolo[3,4-b]pyrazin-3-amine], the EC50 stood at 0.01 µM.
Under `Cn1nc(C2CC2)c2ccc(Nc3n[nH]c4ncc(F)cc34)cc21` [Example 5, N-(3-cyclopropyl-1-methyl-1H-indazol-6-yl)-5-fluoro-1H-pyrazolo[3,4-b]pyridin-3-amine] stands 0.364 µM; under `Cc1cc(Cn2ncc3ncc(Nc4n[nH]c5ccccc45)cc32)no1` [Example 26, N-(1H-indazol-3-yl)-1-((5-methylisoxazol-3-yl)methyl)-1H-pyrazolo[4,3-b]pyridin-6-amine], greater than 10 µM.
Under `Cn1nc(C(=O)N2CCC(F)(F)CC2)c2ccc(Nc3n[nH]c4cccnc34)cc21` [Example 162, (4,4-difluoro-1-piperidyl)-[1-methyl-6-(1H-pyrazolo[4,3-b]pyridin-3-ylamino)indazol-3-yl]methanone] stands 0.498 µM; under `C=C(C)Cn1nc(C)c2cc(Nc3n[nH]c4nccnc34)ccc21` [Example 128, N-(3-methyl-1-(2-methylallyl)-1H-indazol-5-yl)-1H-pyrazolo[3,4-b]pyrazin-3-amine], 0.049 µM.
As for `Cn1nc(C(F)(F)F)c2cc(Nc3n[nH]c4cccnc34)ccc21` [Example 110, N-(1-methyl-3-(trifluoromethyl)-1H-indazol-5-yl)-1H-pyrazolo[4,3-b]pyridin-3-amine], the figure is 0.119 µM; as for `Cc1ccccc1Cc1nn(C)c2cc(Nc3n[nH]c4nccnc34)ccc12` [Example 49, N-(1-methyl-3-(2-methylbenzyl)-1H-indazol-6-yl)-1H-pyrazolo[3,4-b]pyrazin-3-amine], 4.6 µM.
